Measured values as given in the supplement of paper PMC5579334.

Tests used:
HS-PSS [1] = experiment: drug sensitivity score (DSS, CellTox-Green cytotoxicity, 72 h) (DSS (dimensionless)); higher = more cytotoxic; extreme values may be limits of the assay
Procedure, shortened: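 For 72 h at 37 °C, MPNST cell lines and primary human Schwann cells were exposed in 384-well plates to five 10-fold compound dilutions. CellTox-Green, added before seeding at a final 1:1000 dilution, gave fluorescence from DNA released by disrupted cells. Signals were scaled to vehicle and positive-control wells, cultures failing plate quality control were left out, and four-parameter logistic fits were applied. Relative IC50 and drug sensitivity score were derived from the fits, with IC50 censored at the top concentration.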

HS-PSS [2] = experiment: % inhibition of CellTiter-Glo viability at highest tested concentration (72 h), relative to DMSO and benzethonium chloride controls; higher = more inhibition
Procedure, shortened: (§1)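 After seeding 750–1000 cells per well of MPNST cell lines or primary human Schwann cells into 384-well plates preprinted with each compound at five concentrations in 10-fold steps, plates were kept 72 h at 37 °C, 5% CO2. Viability was read as CellTiter-Glo ATP luminescence relative to vehicle and positive-control wells, with duplicates averaged where present. The data were fitted with four-parameter logistic models. Drug sensitivity score and relative IC50, censored at the top concentration, derive from the fits, and percent inhibition refers to the top concentration.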

YST-1 [3] = experiment: as above
Procedure, shortened: as §1

HS-Sch-2 [4] = experiment: as above
Procedure, shortened: as §1

HS-PSS [5] = experiment: drug sensitivity score (DSS, CellTiter-Glo viability, 72 h) (DSS (dimensionless)); higher = more sensitive; extreme values may be limits of the assay
Procedure, shortened: as §1

YST-1 [6] = experiment: as above
Procedure, shortened: as §1

HS-Sch-2 [7] = experiment: as above
Procedure, shortened: as §1

Row | SMILES | drug sensitivity score (HS-PSS [1]) | % inhibition (HS-PSS [2]) [%] | % inhibition (YST-1 [3]) [%] | % inhibition (HS-Sch-2 [4]) [%] | drug sensitivity score (HS-PSS [5]) | drug sensitivity score (YST-1 [6]) | drug sensitivity score (HS-Sch-2 [7])
1 | CCn1cc(-c2ccnc3[nH]c(-c4cccc(CN(C)C)c4)cc23)c(-c2ccc(NC(=O)N(C)C)cc2)n1 (max concentration tested 1000 nM) | 0 | 46.2 | 33.4 | 54 | 4.28 | 10.8 | 4.77
2 | CNC(=O)c1ccc(C)c(-n2c(C)cc(OCc3ccc(F)cc3F)c(Br)c2=O)c1 (max concentration tested 1000 nM) | 0 | 8.35 | 38.4 | 4 | 0 | 5.16 | 0
3 | C[C@@H](Oc1ccc2[nH]nc(/C=C/c3cnn(CCO)c3)c2c1)c1c(Cl)cncc1Cl (max concentration tested 1000 nM) | 2.66 | 91 | 55.4 | 67.9 | 7.62 | 6.1 | 6.87
4 | C[C@H]1Oc2cc(cnc2N)-c2c(nn(C)c2C#N)CN(C)C(=O)c2ccc(F)cc21 (max concentration tested 1000 nM) | 0 | 53.9 | 3.35 | 14.9 | 12.3 | 0 | 0.53
5 | O=C(NOC[C@H](O)CO)c1ccc(F)c(F)c1Nc1ccc(I)cc1F (max concentration tested 1000 nM) | 0 | 12.4 | -8.18 | 15 | 0.01 | 0 | 0.69
6 | CCOc1ccn(-c2ccc(F)cc2)c(=O)c1C(=O)Nc1ccc(Oc2ccnc(N)c2Cl)c(F)c1 (max concentration tested 2500 nM) | 0 | 15.6 | 2.08 | 4.22 | 1.43 | 0 | 0
7 | CNC(=O)c1c(F)cccc1Nc1nc(Nc2cc3c(cc2OC)CCN3C(=O)CN(C)C)nc2[nH]ccc12 (max concentration tested 2500 nM) | 1.53 | 59.1 | 66.3 | 11.8 | 13.9 | 11.8 | 0.22
8 | Cc1cccc(CC(=O)N2CCc3c2ccc(-c2cn(C)c4ncnc(N)c24)c3F)n1 (max concentration tested 2500 nM) | 0 | 29.6 | 14.4 | 16.1 | 0.96 | 0.36 | 0.16
9 | OCCn1cc(-c2cnc3nnn(Cc4ccc5ncccc5c4)c3n2)cn1 (max concentration tested 2500 nM) | 0 | 9.08 | 18.5 | 0.31 | 0.05 | 0.62 | 0
10 | CNC(=O)c1ccccc1Nc1nc(Nc2ccc3c(c2OC)CCC[C@H](N2CCN(CCO)CC2)C3)ncc1Cl (max concentration tested 5000 nM) | 2.99 | 86.5 | 82.8 | 98.5 | 15 | 8.71 | 7.99
11 | Cc1ncc(Cl)cc1NCc1ccc(C(=O)N[C@@H](CC2CCCC2)C(=O)NC2CC2)s1 (max concentration tested 5000 nM) | 0 | 10.8 | 45.9 | 12.8 | 0 | 8.01 | 0.17
12 | CC(=O)NCC(=O)N1[C@@H]2CC[C@H]1c1ccc(Nc3ncc(C(F)(F)F)c(NC4CCC4)n3)cc12 (max concentration tested 10000 nM) | 1.86 | 87.8 | 82.8 | 99.3 | 9.91 | 10.5 | 11.5
13 | CC(C)(C)C[C@@H]1N[C@@H](C(=O)N[C@H]2CC[C@H](O)CC2)[C@H](c2cccc(Cl)c2F)[C@]12C(=O)Nc1cc(Cl)ccc12 (max concentration tested 10000 nM) | 0 | 36.2 | 100 | 19.6 | 1.67 | 21.9 | 0.86
14 | CC(C)CC(=O)Nc1n[nH]c2c1CN(C(=O)C1CCN(C)CC1)C2(C)C (max concentration tested 10000 nM) | 2.57 | 83.7 | 99.8 | 101 | 11.5 | 11.8 | 10.2
15 | CC(C)Oc1ccc(C(=O)N[C@H](CNC(=O)CN(C)C)Cc2ccc(-c3cn4cccc([C@H](C)O)c4n3)cc2)cc1Cl (max concentration tested 10000 nM) | 1.48 | 66.7 | 62 | 95.2 | 8.56 | 19.5 | 24.1
16 | CCNC(=O)C[C@@H]1N=C(c2ccc(Cl)cc2)c2cc(OC)ccc2-n2c(C)nnc21 (max concentration tested 10000 nM) | 0 | 58.4 | 65.3 | 63.1 | 7.28 | 10.2 | 8.49
17 | CCc1cc(Nc2nccc(-c3c(-c4ccc(OC)c(C(=O)Nc5c(F)cccc5F)c4)nc4ccccn34)n2)c(OC)cc1N1CCC(N2CCN(S(C)(=O)=O)CC2)CC1 (max concentration tested 10000 nM) | 0 | 4.32 | 52.3 | 7.21 | 0 | 16.1 | 0.89
18 | CCn1c(-c2nonc2N)nc2c(C#CC(C)(C)O)ncc(OC[C@H]3CCCNC3)c21 (max concentration tested 10000 nM) | 0 | 3.9 | -24.9 | 39 | 0 | 0 | 3.35
